Measured values taken from PMC8657773, “Development of a PROTAC-Based Targeting Strategy Provides a Mechanistically Unique Mode of Anti-Cytomegalovirus Activity” (International Journal of Molecular Sciences, 2021).
Like-named read-outs stand apart in the source and are kept apart here.

Key:
HCMV AD169-GFP [1] = test: microbe, parasite or virus in culture; format: cell-based, Human cytomegalovirus; conditions: Human betaherpesvirus 5, AD169
TEV-1 trophoblast cells = test: Transwell migration assay, HCMV AD169-infected TEV-1 trophoblasts; format: cell-based, human; conditions: HCMV AD169-infected TEV-1 (MOI 2), 10 µM, vs infected untreated cells (p = 0.999)
HCMV AD169-GFP [2] = test system: HCMV AD169-GFP; parameters: method as in PMID 30452929, PMID 25624324; conditions: anti-HCMV, preceding determination; ref [22],[26]; cited from earlier work
SARS-CoV-2 d6-YFP = test system: SARS-CoV-2 d6-YFP; parameters: method as in PMID 34578109; conditions: human Caco-2 cells, previously demonstrated; ref [41]; cited from earlier work

## Cc1c(Br)c(Br)c2c3c1nc(N1CCNCC1)n3CCC2 [SEL120]
HCMV AD169-GFP [1]
  EC50: 120 ± 70 nM

## Nc1nc(O)c2ncn(COC(CO)CO)c2n1 [ganciclovir]
TEV-1 trophoblast cells
  resolving HCMV inhibition of trophoblast migration: no effect

## CC(C)c1cnn2c(NCc3ccccc3-n3cccn3)nc(OC3CCCNC3)nc12 (stereo not shown) [LDC4297]
HCMV AD169-GFP [2]
  EC50: 30 nM
SARS-CoV-2 d6-YFP
  impairment of SARS-CoV-2 replication: inactive
